Source: patent US8008290B2, “Compounds” (priority 2009, dated 2011)

Columns and labels:
[1] = molecular target: T1, Human recombinant cathepsin K (Homo sapiens, UniProt P43235); experiment: In vitro cathepsin Ki inhibition measurement, cathepsin K; type: biochemical; conditions: for Ki: human cathepsin K, steady-state, competitive model, read-out: In vitro Ki (nM) vs Cath K
T1 sequence (P43235 115-329): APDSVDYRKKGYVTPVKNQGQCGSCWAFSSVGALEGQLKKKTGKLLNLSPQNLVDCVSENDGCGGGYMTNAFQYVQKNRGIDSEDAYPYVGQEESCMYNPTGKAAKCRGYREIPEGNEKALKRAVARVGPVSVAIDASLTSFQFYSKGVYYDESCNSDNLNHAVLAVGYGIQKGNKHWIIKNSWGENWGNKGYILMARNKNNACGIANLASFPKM
Description: Stock solutions of substrate or inhibitor were made up to 10 mM in 100% dimethylsulfoxide (DMSO) (Rathburns, Glasgow, U.K.) and diluted as appropriately required. In all cases the DMSO concentration in the assays was maintained at less than 1% (vol./vol.). The equilibrium inhibition constants (Ki^ss) for each compound were measured under steady-state conditions monitoring enzyme activity as a function of inhibitor concentration. […] B. […] The apparent inhibition constant (Ki) for each compound was determined on the basis that inhibition was reversible and occurred by a pure-competitive mechanism. […] F. Trends Biochem. […] Morrison, J. F. Biochim. Biophys. […] Curves were fitted by non-linear regression analysis (Prism) using a fixed value for the enzyme concentration.

[2] = molecular target: T2, Human recombinant cathepsin S (Homo sapiens, UniProt P25774); experiment: In vitro cathepsin Ki inhibition measurement, cathepsin S; type: biochemical
T2 construct: purchased Merck 219343; host or cells: E. coli
T2 sequence (P25774 115-331): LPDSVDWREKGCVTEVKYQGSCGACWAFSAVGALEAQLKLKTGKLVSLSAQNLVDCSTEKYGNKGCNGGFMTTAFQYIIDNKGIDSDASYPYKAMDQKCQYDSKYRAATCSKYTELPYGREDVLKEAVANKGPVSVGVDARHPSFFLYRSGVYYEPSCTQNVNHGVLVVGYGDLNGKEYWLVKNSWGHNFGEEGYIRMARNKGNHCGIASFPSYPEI
Description: Stock solutions of substrate or inhibitor were made up to 10 mM in 100% dimethylsulfoxide (DMSO) (Rathburns, Glasgow, U.K.) and diluted as appropriately required. In all cases the DMSO concentration in the assays was maintained at less than 1% (vol./vol.). The equilibrium inhibition constants (Ki^ss) for each compound were measured under steady-state conditions monitoring enzyme activity as a function of inhibitor concentration. […] The apparent inhibition constant (Ki) for each compound was determined on the basis that inhibition was reversible and occurred by a pure-competitive mechanism. […] Biophys. […] Curves were fitted by non-linear regression analysis (Prism) using a fixed value for the enzyme concentration.

| SMILES | Ki [1] [nM] | fold improvement in in vitro potency against human cathepsin S ([2]; relative to Compound 1) [fold] | fold improvement in in vitro potency against human cathepsin K ([1]; relative to Compound 1) [fold] | fold improvement in in vitro potency against human cathepsin S ([2]; relative to compound 3) [fold] | fold improvement in in vitro potency against human cathepsin K ([1]; relative to compound 3) [fold] |
| --- | --- | --- | --- | --- | --- |
| O=C(N[C@H](C(=O)N1C[C@H](Cl)[C@H]2OCC(=O)[C@H]21)C1CCCCC1)c1cccc(-n2ccnc2)c1 [EXAMPLE 3, N—((S)-2-((3aS,6S,6aS)-6-chloro-3-oxodihydro-2H-furo[3,2-b]pyrrol-4(5H,6H,6aH)-yl)-1-cyclohexyl-2-oxoethyl)-3-(1H-imidazol-1-yl)benzamide] | 23 | – | – | – | – |
| O=C(N[C@H](C(=O)N1C[C@H](Cl)[C@H]2OCC(=O)[C@H]21)C1CCCCC1)c1ccccc1 [EXAMPLE 1, N—((S)-2-((3aS,6S,6aS)-6-chloro-3-oxodihydro-2H-furo[3,2-b]pyrrol-4(5H,6H,6aH)-yl)-1-cyclohexyl-2-oxoethyl)benzamide] | 35 | – | – | – | – |
| O=C(N[C@H](C(=O)N1C[C@H](F)[C@H]2OCC(=O)[C@H]21)C1CCCCC1)c1ccccc1 [Compound 2] | 95 | 3.8 | 3.2 | – | – |
| O=C(N[C@@H](CC1CCCCC1)C(=O)N1CC[C@H]2OCC(=O)[C@H]21)c1ccccc1 [Prior art compound 38, reference compound] | > 4000 | – | – | – | – |
| O=C(N[C@H](C(=O)N1C[C@H](F)[C@H]2OCC(=O)[C@H]21)C1CCCCC1)c1cccc(-n2cnnn2)c1 [Compound 4] | 340 | – | – | 3.4 | 1.7 |
| O=C(N[C@H](C(=O)N1C[C@H](Cl)[C@H]2OCC(=O)[C@H]21)C1CCCCC1)c1cccc(-n2cnnn2)c1 [EXAMPLE 2, N—((S)-2-((3aS,6S,6aS)-6-chloro-3-oxodihydro-2H-furo[3,2-b]pyrrol-4(5H,6H,6aH)-yl)-1-cyclohexyl-2-oxoethyl)-3-(1H-tetrazol-1-yl)benzamide] | 27 | – | – | 47 | 20.5 |
| O=C(N[C@H](C(=O)N1C[C@@H](Cl)[C@H]2OCC(=O)[C@H]21)C1CCCCC1)c1cccc(-n2ccnc2)c1 [Compound 5] | 230 | – | – | – | – |
| O=C(N[C@H](C(=O)N1CC[C@H]2OCC(=O)[C@H]21)C1CCCCC1)c1cccc(-n2cnnn2)c1 [Compound 3] | 560 | – | – | – | – |
